In PubChem BioAssay AID1189 (EPA DSSTox, 2008):
Active and inactive are the calls of the source.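 The calls were made as follows: active = a tumor-causing dose value with its tumor site reported for any sex and species group of a rodent or other animal cancer study; inconclusive = only studies judged inadequate by the national testing program; inactive = tested in at least one study, none positive.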

Assay: DSSTox (CPDBAS) Carcinogenic Potency Database Summary SingleCellCall Results
Conditions: animal chronic carcinogenicity bioassays, CPDB summary call
How it was run: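 Categorical carcinogenicity call compiled from published chronic rodent and other animal cancer bioassays; based on the most positive result across experiments for each sex-species, assigned on minimal evidence for or against activity.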
For `O=C(O)c1cc(N=Nc2ccc(S(=O)(=O)Nc3ccccn3)cc2)ccc1O`, the outcome was “active”.
With `O=C1OC(c2ccc(O)cc2)(c2ccc(O)cc2)c2ccccc21` the outcome was “active”.
In the case of `CC(O)c1ccccc1` (stereo not given), the outcome is reported as “active; inactive”.
For `CC1=C[C@H]2O[C@@H]3[C@H](O)C[C@@](C)(C34CO4)[C@@]2(CO)[C@H](O)C1=O` (stereo not given in full), the outcome was “inactive; active”.
For `CCOC(N)=O`, the outcome was “active; inactive”.
In the case of `Cl`, the outcome is reported as “inactive”.
With `CC(C)C=O` the outcome was “inactive”.
In the case of `Cc1cc(=O)n(-c2ccccc2)n1C`, the outcome is reported as “active; inactive”.
For `O=C1c2ccccc2CN2C(=O)c3ccccc3CN12`, the outcome was “active”.
For `O=C(O)Cc1cccc2ccccc12`, the outcome was “inactive; active”.
With `Oc1ccc(Cl)cc1Cl` the outcome was “inactive”.
In the case of `NC1CCCCC1`, the outcome is reported as “inactive”.
In the case of `C=COC(N)=O`, the outcome is reported as “active; inactive”.
For `COP(=S)(OC)Oc1ccc([N+](=O)[O-])cc1`, the outcome was “inactive”.
With `Nc1nc(N)nc(-c2ccccc2)n1` the outcome was “inactive; active”.
In the case of `C1OC1C1CO1` (stereo not given), the outcome is reported as “inactive”.
For `CC(N)=S`, the outcome was “active”.
In the case of `CC(=O)Nc1nc(-c2ccc([N+](=O)[O-])o2)cs1`, the outcome is reported as “active”.
For `CCCCN(CC)C(=O)SCCC`, the outcome was “inactive”.
In the case of `CCOP(=S)(OCC)Oc1nc(Cl)c(Cl)cc1Cl`, the outcome is reported as “inactive”.
For `CC(C)=CCC/C(C)=C/C=O`, the outcome was “inactive”.
In the case of `CC/C(=C(\c1ccccc1)c1ccc(OCCN(C)C)cc1)c1ccccc1`, the outcome is reported as “active”.
For `CCN(CC)C(=S)SSC(=S)N(CC)CC`, the outcome was “inactive; active”.
In the case of `NC(Cc1c[nH]c2ccccc12)C(=O)O` (stereo not given), the outcome is reported as “inactive”.
With `CNC(=O)O/N=C/C(C)(C)SC` the outcome was “inactive”.
For `NNC(N)=S`, the outcome was “inactive”.
In the case of `Cc1c(N(C)C)c(=O)n(-c2ccccc2)n1C`, the outcome is reported as “inactive”.
In the case of `CCC1(c2ccccc2)C(=O)N=C(O)NC1=O` (stereo not given), the outcome is reported as “active”.
For `FC(F)=C(F)F`, the outcome was “active; inactive”.
In the case of `[O]=[Cr][O][Cr]=[O]`, the outcome is reported as “inactive”.
With `Clc1ccc2c(c1)C(c1ccccc1)=NCc1nncn1-2` the outcome was “inactive; active”.
In the case of `CC(=O)Nc1cccc2c1-c1ccccc1C2`, the outcome is reported as “inactive”.
With `CC(C)Oc1ccc(Nc2ccccc2)cc1` the outcome was “inactive”.
In the case of `C=CC(=O)O`, the outcome is reported as “inactive; active”.
With `O=NN1CCCCC1c1cccnc1` (stereo not given) the outcome was “active”.
With `ClC(Cl)Br` the outcome was “active”.
In the case of `c1ccc2[nH]c(-c3cscn3)nc2c1`, the outcome is reported as “inactive”.
For `O=C1CC(=O)NC(=O)N1`, the outcome was “inactive”.
With `NNCc1ccccc1` the outcome was “active”.
In the case of `CC(O)CCl` (stereo not given), the outcome is reported as “inactive; active”.
In the case of `C[C@H]1CCCC(=O)CCC/C=C/c2cc(O)cc(O)c2C(=O)O1`, the outcome is reported as “active”.
For `CCCc1c(OCCCCc2nn[nH]n2)ccc(C(C)=O)c1O`, the outcome was “active”.
In the case of `CCCN(CCC)N=O`, the outcome is reported as “active”.
For `Clc1cc2c(cc1Cl)Oc1cc(Cl)c(Cl)cc1O2`, the outcome was “active; inactive”.
With `N` the outcome was “inactive”.
With `CC(=O)NN` the outcome was “active”.
For `O=C(O)CCl`, the outcome was “inactive; active”.
With `CC(C)N(C(=O)SC/C(Cl)=C/Cl)C(C)C` the outcome was “active; inactive”.
With `Cc1ccc2cc3c(ccc4ccccc43)c3c2c1CC3` the outcome was “active; inactive”.
With `Nc1ccccc1-c1ccccc1` the outcome was “active; inactive”.
In the case of `CC(=O)Nc1ccc2c(c1)C(=O)c1ccccc1-2`, the outcome is reported as “active”.
For `O=[N+]([O-])/C=C/c1ccccc1`, the outcome was “inactive”.
In the case of `CCOc1ccc(NC(C)=O)cc1[N+](=O)[O-]`, the outcome is reported as “active”.
For `COc1ccccc1N`, the outcome was “active”.
In the case of `c1cc(OCC2CO2)cc(OCC2CO2)c1` (stereo not given), the outcome is reported as “active”.
In the case of `CC(C)OC(=O)COc1ccc(Cl)cc1Cl`, the outcome is reported as “inactive”.
In the case of `NC(Cc1ccc(O)c(O)c1)C(=O)O` (stereo not given), the outcome is reported as “inactive”.
For `C[C@H](CCc1ccccc1)NC[C@H](O)c1ccc(O)c(C(N)=O)c1`, the outcome was “inactive”.
In the case of `Nc1ccc([N+](=O)[O-])cc1N`, the outcome is reported as “inactive; active”.
In the case of `CCOC(=O)N(CC)N=O`, the outcome is reported as “active; inactive”.
In the case of `Clc1cnc(Oc2ccc(Oc3ncc(Cl)cc3Cl)cc2)c(Cl)c1`, the outcome is reported as “inactive”.
With `O=NN1C[C@H](O)C[C@H]1C(=O)O` the outcome was “inactive”.
In the case of `CC(=O)OC/C=C(\C)CCC=C(C)C`, the outcome is reported as “inactive”.
With `Nc1nc(/C=C/c2ccc([N+](=O)[O-])o2)no1` the outcome was “active”.
With `O=P(OCCCl)(OCCCl)OCCCl` the outcome was “active”.
For `O[C@H]([C@H](O)[C@@H](O)CBr)[C@H](O)CBr`, the outcome was “active; inactive”.
In the case of `Nc1ccc(-c2ccccc2)cc1O`, the outcome is reported as “inactive”.
With `CC(=O)NNc1ccc(CO)cc1` the outcome was “active”.
In the case of `Oc1cccc2cccnc12.Oc1cccc2cccnc12.[Cu]`, the outcome is reported as “inactive”.
For `Cn1cnc2nc(N)[nH]c(=O)c21`, the outcome was “inactive”.
For `CC(=O)Nc1ccc(-c2ccc(F)cc2)cc1`, the outcome was “active”.
In the case of `Cc1ccc(N=Nc2c(O)ccc3ccccc23)c([N+](=O)[O-])c1`, the outcome is reported as “active”.
With `O=C1CCO1` the outcome was “active; inactive”.
In the case of `CCN(CC)C(=S)S[Te](SC(=S)N(CC)CC)(SC(=S)N(CC)CC)SC(=S)N(CC)CC`, the outcome is reported as “inactive”.
With `COc1cc(OC)c2c3c(c(=O)oc2c1)CCC3=O` the outcome was “inactive”.
With `Cc1c(C)c2c(c(C)c1O)CCC(C)(CCCC(C)CCCC(C)CCCC(C)C)O2` (stereo not given) the outcome was “inactive”.
With `CCCCCCCCCCCCN(C)N=O` the outcome was “active”.
With `NNCCc1ccccc1` the outcome was “active”.
In the case of `Nc1ccccc1C(=O)O`, the outcome is reported as “inactive; active”.
With `CNC(=O)CSP(=S)(OC)OC` the outcome was “inactive”.
In the case of `CC1(C)[C@H](C(=O)O[C@H](C#N)c2cccc(Oc3ccccc3)c2)[C@@H]1C=C(Br)Br`, the outcome is reported as “inactive”.
For `Nc1ccc(N=Nc2ccccc2)c(N)n1`, the outcome was “active”.
With `CC(N)Cc1ccccc1` (stereo not given) the outcome was “inactive”.
For `ClC(Br)Br`, the outcome was “active”.
For `OC(Cn1cncn1)(Cn1cncn1)c1ccc(F)cc1F`, the outcome was “active; inactive”.
For `Cc1c([N+](=O)[O-])c(C)c([N+](=O)[O-])c(C(C)(C)C)c1[N+](=O)[O-]`, the outcome was “active”.
For `CCN(N)C=O`, the outcome was “active”.
With `CN(N)C=O` the outcome was “active”.
With `CC(C)N=[N+]([O-])C(C)C` the outcome was “active”.
In the case of `CC(C)CON=O`, the outcome is reported as “active”.
With `COC1[C@@H](O[C@@H]2O[C@H](C)[C@@H](O[C@H]3C[C@@](C)(O)[C@H](OC(=O)CC(C)C)[C@H](C)O3)[C@H](N(C)C)[C@H]2O)[C@@H](CC=O)C[C@@H](C)[C@@H](O)/C=C/C=C/C[C@@H](C)OC(=O)C[C@H]1OC(C)=O` (stereo not given in full) the outcome was “inactive; active”.
In the case of `CCCCCc1cc(O)c2c(c1)OC(C)(C)[C@@H]1CCC(C)=C[C@@H]21`, the outcome is reported as “inactive; active”.
In the case of `CC1=C(CC(=O)O)c2cc(F)ccc2/C1=C\c1ccc(S(C)(=O)=O)cc1`, the outcome is reported as “inactive”.
In the case of `CC(C)(C)O`, the outcome is reported as “active; inactive”.
For `O=c1cc(CO)occ1O`, the outcome was “active”.
In the case of `O=c1oc2c(O)c(O)cc3c(=O)oc4c(O)c(O)cc1c4c23`, the outcome is reported as “inactive”.
In the case of `O=S(=O)(c1ccc(Cl)cc1)c1ccc(Cl)cc1`, the outcome is reported as “inactive; active”.
In the case of `O.O=S(=O)([O-])[O-].[Mn+2]`, the outcome is reported as “inactive”.
With `NNc1nc(-c2ccc(N)cc2)cs1` the outcome was “active”.
In the case of `CN(C)N`, the outcome is reported as “active”.
